From PubChem BioAssay AID1508612

Assay: passive permeability, PAMPA, ADME assay (AID 1508612)
Settings: pH 7.4, 30.0 min, 50.0 µM

SMILES	Papp [×10⁻⁶ cm/s]
O=C(Nc1ccc(N2CCC(N3CCCCC3)CC2)c(C(=O)O)c1)c1ccc(Br)cc1	< 1
CN(C)S(=O)(=O)c1cccc(NC(=O)c2ccc[nH]2)c1	179
Cc1ccc(C(=O)N2CCc3c(nc4cc(-c5ccccc5)[nH]n4c3=O)C2)cn1	< 1
Cc1noc(C)c1-c1ccc2ncnc(NCc3ccc4[nH]ccc4c3)c2c1	> 1000
CCn1cc(C(=O)O)c(=O)c2cnc(N3CCN(C(=S)Nc4ccccc4)CC3)nc21	12.1
Cc1ccc(C)c(CN2CCC(CNC(=O)Nc3ccc(Br)cc3F)CC2)c1	> 1000
Cc1ccc(C)n1-c1cccc(C(=O)O)c1	34.6
CC(=O)NC(c1cccs1)c1cc(Br)c2cccnc2c1O (stereo not given)	73
CN(C)c1cccc(-c2cnc(Nc3cccnc3)c3c2CCO3)c1	> 1000
NC(=O)C1CCN(c2nc(-c3cccc(Br)c3)cs2)CC1	788
O=C(NCC1CCN(Cc2cccc(Cl)c2)CC1)Nc1ccc(F)c(Cl)c1	> 1000
Clc1ccc2ncc(-c3cccc(NC4CNC4)n3)n2c1	182
COc1cc(Nc2nc(-c3ccncc3)nc3ccccc23)ccc1Cl	19.8
COc1ccc(-c2ccc(C(=O)NC3CC(c4cc(=O)[nH]c(N)n4)C3)o2)cc1 (stereo not given)	20.9
CCCCC1CCC(C(=O)Nc2ccc(S(=O)(=O)Nc3nccs3)cc2)CC1 (stereo not given)	587
CCc1c(C)nc2c(-c3cnn(-c4cc(CO)ccn4)c3)c[nH]n2c1=O	1.62
Cc1ccc(NC(=O)CSc2ncc(S(=O)(=O)c3ccc(C(C)C)cc3)c(=O)[nH]2)cc1C	1.8
Cc1cc(C)c(CNC(=O)c2nc(-c3cccc(CO)c3)cc3c2ccn3C)c(=O)[nH]1	> 1000
Cn1nnnc1Sc1ncnc2scc(Br)c12	177
Cc1cc(NS(=O)(=O)c2ccc(NC(=O)Cc3ccc(Cl)c(Cl)c3)cc2)n(C)n1	31.7
COc1ccc(S(=O)(=O)N(CC(=O)Nc2ccc(C)cc2)c2ccc(C)cc2)cc1OC	> 1000
NC(=O)C1CCN(c2ncc(-c3ccc4c(c3)OCCO4)s2)CC1	710
CCCC1=Nc2cc(C(=O)NC3CCCC3)ccc2Sc2ccc(C)cc21	662
O=C(Nc1ccc(Oc2ccnc3[nH]ccc23)c(F)c1)c1cccn(-c2ccc(F)cc2)c1=O	407
COc1cccc(CNC(=O)c2c(OC)cc(=O)n3c2CCN(C(=O)c2ccc(C)cc2C)CC3)c1	93.9
Cc1cn(-c2cc(NC(=O)c3ccc(C)c(Nc4nccc(-c5cccnc5)n4)c3)cc(C(F)(F)F)c2)cn1	676
Cc1ccc(NC(=O)NCC2CCN(Cc3cccc(Cl)c3)CC2)cc1Cl	746

SMILES	Papp [×10⁻⁶ cm/s]
CC(=O)c1c(C)[nH]c(C(=O)Nc2cccc([S+](=O)([O-])Nc3ccc(C#N)cc3)c2)c1C	178
CN(Cc1ccc(/C=C/C(=O)NO)cc1)CC12CC3CC(CC(C3)C1)C2	> 1000
O=C(NCC1Cn2cccc2CN1Cc1cccnc1)Nc1ccccc1 (stereo not given)	< 1
Cc1ccc(CN2C(=O)C(O)(CC(=O)c3ccc(C)cc3)c3ccccc32)cc1 (stereo not given)	802
COc1c(C)c2c(c(O)c1C/C=C(\C)CCC(=O)OCCN1CCOCC1)C(=O)OC2	613
COc1ccc2[nH]cc(CCNC(=O)c3cnn(-c4ccc(C)cc4)c3C3CCN(C(=O)OC(C)(C)C)CC3)c2c1	153
O=C(Nc1cc(C(F)(F)F)ccc1N1CCOCC1)c1n[nH]c(=O)c2ccccc12	53.5
CC(=O)c1ccc(N2CCN(S(=O)(=O)c3ccc4[nH]c(=O)[nH]c4c3)CC2)cc1	< 1
c1ccc2c(NC3CCCCC3)nc(-c3ccncc3)nc2c1	> 1000
Fc1ccc(CN2CCOC[C@H]2c2ncc(-c3ccc(Cl)s3)[nH]2)cc1	> 1000
CNc1nc2c(s1)C(c1ccccc1F)CC(=O)N2 (stereo not given)	52
C[C@@]1(O)[C@H](O)[C@@H](CO)O[C@H]1n1ccc(N)nc1=O	9.97
O=C(Nc1nc(-c2ccccc2)cs1)c1ccncc1NS(=O)(=O)c1cccs1	83.2
CCC(CC)c1cc([C@H]2CN3CC[C@H]2C[C@@H]3CNC(C)=O)nc(-c2ccncc2)n1	994
O=S(=O)(Nc1ccc(C2CCNCC2)cc1)c1ccc(NCc2cccc(Cl)c2O)cc1	3.22
CC(C)(C)c1ccc(-c2ccc(=O)n(CC(=O)NCCc3ccccc3)n2)cc1	> 1000
COc1ccc(-n2nc(C3CCCN(C(=O)C4CC4)C3)[nH]c2=O)cc1 (stereo not given)	113
CC[C@@]1(O)C(=O)OCc2c1cc1n(c2=O)Cc2c-1nc1ccccc1c2CCNC(C)C	< 1
NC(=O)C1CCN(c2nc(-c3ccccc3)cs2)CC1	598
NC1(c2ccccc2Cl)CCCCC1=O (stereo not given)	62
Cc1ccc(O)c(-c2cc(-c3ccccc3C)[nH]n2)c1	511
CN(C(=O)c1cn2c(-c3ccc(C(F)(F)F)cc3)cnc2cn1)c1ccc(C#N)cc1	874
CCc1ccc(NC(=O)c2[nH]c(C)c(C(C)=O)c2C)cc1S(=O)(=O)Nc1ccc(Br)cc1	< 1
CCOc1ccc(CCNC(=O)c2cc3sccc3n2C(C)C)cc1OCC	897
c1cc(-c2cc(-c3ccncc3)c3cncn3c2)c2[nH]ccc2c1	157
Cc1cc(C)nc(NC(=S)N2CCN(c3cccc(OC(F)F)c3)CC2)c1	852
CCOC(=O)c1c[nH]c2c3c(ccc2c1=O)CCCC3	434

SMILES	Papp [×10⁻⁶ cm/s]
NC(=O)C1CCN(c2nnc(-c3ccc(Br)cc3)s2)CC1	525
O=C(c1ccc2c(c1)ncn2-c1ccc(Cl)cc1)N1CCCCC1	> 1000
Cc1ccc(S(=O)(=O)Nc2cccc(C(=O)Nc3nc(-c4ccccc4)cs3)c2Cl)cc1	< 1
O=C1CCCc2cc(S(=O)(=O)Nc3cnccc3C(=O)Nc3nc(-c4ccccc4)cs3)ccc2N1	1.7
Cc1ccc(S(=O)(=O)NC2CCCCC2)cc1	206
COc1ccc(-c2c(-c3cc(C(=O)O)ccn3)ncn2C)cc1	3.06
COc1ccc(-c2csc(N3CCC(C(N)=O)CC3)n2)cc1OC	270
Cc1ccc(S(=O)(=O)Nc2cnccc2C(=O)Nc2nc(-c3ccc(F)cc3)cs2)cc1	423
CCOc1cc2c(cc1OCC)CN(C(=O)c1cc3sccc3n1Cc1ccccc1)CC2	> 1000
CC(C)c1ccccc1-c1nc2c(c(NCc3ccc(-c4cccnc4)cc3)n1)CNC2	478
COc1ccccc1-n1cnc2cc(C(=O)N3CCCCC3)ccc21	385
CC[C@H]1CN(C)[C@H]2Cc3c([nH]c4ccccc34)C(=O)C[C@H]1[C@H]2C(=O)OC	490
COC(=O)[C@]12CCC(C)(C)C[C@@H]1[C@@H]1C(=O)C=C3[C@@]4(C)C=C(C#N)C(=O)C(C)(C)[C@@H]4CC[C@@]3(C)[C@]1(C)CC2	16.2
Fc1ccc(Nc2nc(-c3ccncc3Cl)nc3ccccc23)cc1F	72.2
Nc1ncnc2c1ncn2[C@H]1O[C@@H](CO)[C@@H](O)[C@H]1N	2.99
CC(C)(C)c1ccc(S(=O)(=O)N2CCC(c3ccncc3)CC2)cc1	320
CCOC(=O)N1CCN(Cc2nc3cc(NC(=O)CC(C)C)ccc3n2C(C)C)CC1	613
CCOc1ccc(NC(=O)CSC2=Nc3ccccc3C3=NC(CC(=O)NCc4cccs4)C(=O)N23)cc1 (stereo not given)	25
COc1cc(O)c([C@H](CC(=O)N2CC(C)CC(C)C2)c2ccc3c(c2)OCO3)c(OC)c1 (stereo not given in full)	> 1000
O=C(c1cnn(-c2cccc(F)c2)c1-n1cccc1)N1CCN(c2ccccc2F)CC1	> 1000
COc1ccnc(NC(=S)N2CCN(c3cc(C(F)(F)F)cc(C(F)(F)F)c3)CC2)c1	373
CC1=C(C(=O)Nc2ccccc2C)C(c2ccccc2Br)N=C(Nc2nc3ccccc3o2)N1 (stereo not given)	390
Cc1ccc2nc(-c3ccccn3)c(Nc3ccccc3C)n2c1	> 1000
CSc1nn(Cc2cccc(C)c2)c(N)c1S(=O)(=O)c1ccccc1	516
C[S+](=O)([O-])c1ccc(-c2nc(C(=O)NCc3cccnc3)n3ccccc23)cc1	540
CCOC(=O)N1CCc2c(sc(NCc3sccc3C)c2C(=O)Nc2cc(Cl)ccc2OC)C1	< 1
CN(C)c1cccc(-c2cc(N3CCC(C(N)=O)CC3)ncn2)c1	37.8

SMILES	Papp [×10⁻⁶ cm/s]
CCOc1ccc(CCNC(=O)c2cc3cccnc3n2Cc2cccc(C)c2)cc1OCC	> 1000
CC1=C(C(=O)NC2CCCC2)C(c2nn(C)cc2Cl)N=C(Nc2nc3ccccc3o2)N1 (stereo not given)	> 1000
CC(Nc1ccc([S+](=O)([O-])Nc2nccs2)cc1)c1ccccc1 (stereo not given)	641
Fc1cc(Nc2nc(-c3ccncc3)nc3ccccc23)ccc1-c1cccc(OC(F)(F)F)c1	23.5
COC(=O)C1=C(C)NC(C)=C(C(=O)OCCCN2CCC(c3ccccc3)(c3ccccc3)CC2)C1c1cccc([N+](=O)[O-])c1 (stereo not given)	34.1
COC(=O)c1ccc2nc(NC3=NC(c4[nH]ncc4Cl)C4=C(CCCC4=O)N3)oc2c1 (stereo not given)	578
COc1ccc(-n2nc(C3CCCN(C(=O)c4ccccc4)C3)[nH]c2=O)cc1 (stereo not given)	< 1
NC(CO)(CO)CCc1ccc(Sc2cccc(OCc3ccccc3)c2)cc1Cl	210
COc1nccc(-c2nc(Nc3ccc(F)c(F)c3)c3ccccc3n2)c1Cl	30.3
NC(=O)C1CCN(c2nc(-c3ccccc3-c3ccccc3)cs2)CC1	606
O=C1c2ccccc2C2=Nc3ccccc3SC(c3ccc(Cl)cc3)C12 (stereo not given)	< 1
COc1cc(NS(=O)(=O)c2ccc(C)cc2)c(C(=O)Nc2nc(-c3ccccc3)cs2)cc1OC	325
Cc1ccc(-c2nc3ccccc3o2)cc1NC(=O)COc1ccccc1	791
O=C(Nc1nc(-c2ccccc2)cs1)c1ccncc1NS(=O)(=O)c1ccccc1Cl	> 1000
Cc1ccccc1C(=O)N1CCc2cc(-c3ccnc(NC(=O)Cc4ccccc4)n3)ccc21	> 1000
CCc1cccc(NC(=O)CSc2nc3ccccc3nc2N2CCCCC2)c1	322
Cc1ccc(N2CCC(CNc3nc(-c4ccccc4C(C)C)ncc3C)CC2)cn1	> 1000
CN1CCCC1CCOC(c1cc2nccc(C(=O)O)c2[nH]1)c1ccccc1Cl (stereo not given)	1.1
Cc1cnc(-c2ccccc2C(C)C)nc1NCc1ccc(-n2ccnn2)cc1	> 1000
Oc1c(C(Nc2nccs2)c2ccc(C(F)(F)F)cc2)ccc2cccnc12 (stereo not given)	41.6
Cc1cc(-c2nnc3n2CCCCC3)c(C)n1-c1ccc(Br)cc1	> 1000
CCc1[nH]c2ccc(CNC(=O)Cc3cnc4c(C)cccn34)cc2c1C	405
COc1cc(-c2nc(-c3ccccc3)c(-c3cccs3)[nH]2)cc(OC)c1O	530
COC(=O)c1ccc(Oc2nc3c(c(=O)n(C)c(=O)n3C)n2CCC(C)C)cc1	> 1000
